Test results as given in US20130197032A1, “[…] COMPOUNDS FOR THE TREATMENT OF NEUROLOGICAL AND […] DISORDERS” (A. CARLSSON RESEARCH AB, priority 2010, published 2013).
“And” between values parts separate entries of the source, which are not always exact repeats. Equal entries are not always repeated. Where two headings read alike, the source gives them in different places.

Legend:
human 5-HT2A receptors [1] = target: T1, human 5-HT2A receptors (Homo sapiens, UniProt P28223); test: Phosphatidyl inositol (PI) hydrolysis assay at 5-HT2A; assay type: cell-based; parameters: expressed in transfected cells
Method: After lysing the cells with 50 μl of 0.1M formic acid, 20 μl each cell lysate was mixed with 80 μl (1 mg) RNA Binding YSi-SPA beads (GE Healthcare, Chalfont St. Giles, UK) on PICO plates (PerkinElmer) and counted on a TopCount (Packard).
Each curve is representative of at least three or more independent experiments.

human 5-HT2A receptors [2] = target: T1, human 5-HT2A receptors; test: BRET2 beta-arrestin-2 recruitment assay at 5-HT2A; assay type: cell-based; parameters: expressed in transfected cells; host or cells: HEK-293T
Method: (§1) BRET-2 signals were measured using the multiplate reader Mithras 940LB (Berthold Technologies, Bad Wildbad, Germany) and were calculated as the ratio between the Renilla luciferase emission and the GFP2 emission corrected by the background emissions of non-transfected cells.

D2 receptors [3] = target: T2, D2 receptors (Homo sapiens, UniProt P14416); test: GTPγS binding assay at D2; assay type: biochemical; parameters: expressed in transfected cells
Method: Cells were not centrifuged following cell scraping, but were collected directly into the ice-cold nitrogen cavitation chamber.
50 μl/well Wheat-Germ Agglutinin SPA beads (Perkin Elmer, Shelton, Conn.) were added to the plates and the plates incubated for 1 hour. The plates were then centrifuged at 1,000×g for 10 minutes and read on a Top Count NXT (Perkin Elmer, Shelton, Conn.).
To relate the results observed in R-SAT™ to a more conventional assay system, these ligands were also tested for the ability to induce GTPγS binding through D2 receptors.

human 5-HT2A receptors [4] = target: T1, human 5-HT2A receptors; test: R-SAT functional assay at 5-HT2A; assay type: cell-based; parameters: expressed in transfected cells; host or cells: NIH-3T3; conditions: for EC50: read-out: R-SAT pEC50 (converted)
D2 receptors [5] = target: T2, D2 receptors; test: R-SAT functional assay at D2; assay type: cell-based; parameters: expressed in transfected cells; host or cells: NIH-3T3
D2 receptors [6] = target: T2, D2 receptors; test: BRET2 beta-arrestin-2 recruitment assay at D2; assay type: cell-based; parameters: expressed in transfected cells; host or cells: HEK-293T
Method: as §1
Each curve is representative of two to three independent experiments.

drug naive mice = test: Head twitch induction in mice; assay type: in vivo; conditions: DOI 1 mg/kg ip, OSU6162 enantiomers 9.375-300 μmol/kg ip, 10 min before registration
Method: The animals used in the head twitch experiments were individually placed in Macrolon type II cages and allowed to habituate to these test cages during 30 minutes before the video registration of behavior began. […] The animals were videotaped for 10 minutes; the behavior was scored during the first 5 minutes. The number of head twitches was counted from the videotapes by a person blind to the treatment.
In FIG. 5, the number of head twitches produced during 5 minutes is shown. The mice were habituated to the test cages during 30 minutes before the video registration of behavior began. […] Shown are means and SEM, n=6-12.

[7] = test system: reserpine-pretreated mice; test: Motor activity in monoamine-depleted (reserpine-pretreated) mice, video tracking; conditions: for antagonism of motor stimulation induced by (+)-OSU6162 250 μmol/kg ip / antagonism of motor stimulation induced by (−)-OSU6162 250 μmol/kg ip: haloperidol 1 mg/kg ip, raclopride 20 mg/kg sc, M100907 1 mg/kg ip, SCH23390 0.3 mg/kg sc, SCH39166 0.1-0.9 mg/kg sc
human H1 receptor = target: T3, human H1 receptor (Homo sapiens, UniProt P35367); test: R-SAT assay H1; assay type: cell-based; conditions: Table 3, H1; percent response of reference Histamine
T3 construct: expressed in transfected cells; host or cells: NIH/3T3

human 5-HT1E receptor = target: T4, human 5-HT1E receptor (Homo sapiens, UniProt P28566); test: R-SAT assay 5-HT1E; assay type: cell-based; conditions: Table 3, 5-HT1E
T4 construct: expressed in transfected cells; host or cells: NIH/3T3

human 5-HT1F receptor = target: T5, human 5-HT1F receptor (Homo sapiens, UniProt P30939); test: R-SAT assay 5-HT1F; assay type: cell-based; conditions: Table 3, 5-HT1F
T5 construct: expressed in transfected cells; host or cells: NIH/3T3
T5 sequence (P30939 1-366): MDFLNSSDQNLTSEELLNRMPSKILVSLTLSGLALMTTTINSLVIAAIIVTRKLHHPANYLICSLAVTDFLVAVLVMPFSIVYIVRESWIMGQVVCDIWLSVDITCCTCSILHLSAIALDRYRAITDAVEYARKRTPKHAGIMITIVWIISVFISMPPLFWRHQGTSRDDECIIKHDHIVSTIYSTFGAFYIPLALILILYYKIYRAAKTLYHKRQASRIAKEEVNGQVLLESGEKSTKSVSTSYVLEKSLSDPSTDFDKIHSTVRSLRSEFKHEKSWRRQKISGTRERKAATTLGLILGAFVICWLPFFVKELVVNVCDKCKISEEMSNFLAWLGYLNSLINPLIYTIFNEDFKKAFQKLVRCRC

habituated rats = test: Locomotion in habituated rats, photocell activity boxes; conditions: habituated rats
Method: Motor activity experiments in both active and habituated rats were performed on male Sprague-Dawley rats (Charles River, Germany) weighing 280-320 g. Prior to testing, rats were housed in groups of four or five in ventilated Macrolon type IV cages for approximately one week.
Rats were housed in a normal daylight cycle and the experiments were carried out during daytime. […] During the following 5 minutes test drugs were injected, after which the rats were returned to the boxes for another 60 minutes. Five by five rows of photocell beams at floor level allowed a computer based-system to register horizontal activity. Motor activity is presented as accumulated number of unrepeated beam breaks, i.e. several consecutive breakings of one beam is counted as one beam break. The software was set to register behavior from the rats' first introduction into the arena until it was finally removed from the box, i.e. for 110 or 130 minutes.
Locomotion was measured as accumulated unrepeated beam breaks. […] This was followed by 60 minutes of registration. Data are calculated from a 30 minutes period, 5-35 minutes after injection, and plotted as means and SEM. […] Data were calculated from a 30 minutes period, 5-35 minutes after injection.
The effect of haloperidol on the locomotor stimulation was also studied in habituated rats (see FIG. 10). Locomotion was measured as accumulated unrepeated beam breaks. Rats were given haloperidol (0.05, 0.2, 0.5 mg/kg, sc) and were then allowed to habituate for 65 minutes. […] Data are calculated from a 30 minutes period, taken 5-35 minutes after injection, and plotted as means and SEM. N=4-5.

[8] = negative logarithm of EC50 in molar (M), HEK 293T cells, mean ± SEM
[9] = percent response of reference ligand 5-HT, mean ± SEM
[10] = percent response of reference ligand dopamine, mean ± SEM
[11] = Table 1, negative logarithm of EC50 in molar (M), NIH3T3 cells, mean ± SEM
[12] = Table 2, percent response of reference ligand pergolide, mean ± SEM
[13] = negative logarithm of EC50 in molar
[14] = percent response of reference BRL 54443
[15] = haloperidol 0.05, 0.2 and 0.5 mg/kg sc
[16] = reserpine-pretreated mice, M100907 0.1 and 1 mg/kg ip 30 minutes prior

T2 sequence (P14416 1-414 isoform P14416-2): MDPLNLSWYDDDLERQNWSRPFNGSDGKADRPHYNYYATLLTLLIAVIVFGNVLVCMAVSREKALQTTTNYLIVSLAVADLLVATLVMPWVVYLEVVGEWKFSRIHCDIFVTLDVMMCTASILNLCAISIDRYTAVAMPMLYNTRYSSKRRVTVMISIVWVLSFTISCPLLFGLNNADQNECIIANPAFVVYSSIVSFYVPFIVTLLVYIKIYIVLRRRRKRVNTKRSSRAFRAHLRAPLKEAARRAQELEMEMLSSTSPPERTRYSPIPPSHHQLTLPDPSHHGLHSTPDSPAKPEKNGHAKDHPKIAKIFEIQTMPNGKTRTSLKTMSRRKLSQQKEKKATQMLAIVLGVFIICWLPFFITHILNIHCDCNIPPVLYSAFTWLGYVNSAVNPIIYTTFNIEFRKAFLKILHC
T1 sequence (P28223 whole entry): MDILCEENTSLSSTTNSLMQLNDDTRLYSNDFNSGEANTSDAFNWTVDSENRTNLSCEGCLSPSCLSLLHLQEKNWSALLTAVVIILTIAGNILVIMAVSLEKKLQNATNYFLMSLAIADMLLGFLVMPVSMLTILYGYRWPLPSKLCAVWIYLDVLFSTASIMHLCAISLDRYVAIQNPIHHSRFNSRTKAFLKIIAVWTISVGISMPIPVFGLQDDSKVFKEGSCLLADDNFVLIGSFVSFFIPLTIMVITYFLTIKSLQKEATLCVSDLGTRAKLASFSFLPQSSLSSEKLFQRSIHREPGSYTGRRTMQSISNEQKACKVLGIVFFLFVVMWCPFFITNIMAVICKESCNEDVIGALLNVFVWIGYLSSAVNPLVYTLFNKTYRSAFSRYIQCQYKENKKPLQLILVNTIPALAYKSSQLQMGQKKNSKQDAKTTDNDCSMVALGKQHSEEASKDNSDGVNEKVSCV
T4 sequence (P28566 whole entry): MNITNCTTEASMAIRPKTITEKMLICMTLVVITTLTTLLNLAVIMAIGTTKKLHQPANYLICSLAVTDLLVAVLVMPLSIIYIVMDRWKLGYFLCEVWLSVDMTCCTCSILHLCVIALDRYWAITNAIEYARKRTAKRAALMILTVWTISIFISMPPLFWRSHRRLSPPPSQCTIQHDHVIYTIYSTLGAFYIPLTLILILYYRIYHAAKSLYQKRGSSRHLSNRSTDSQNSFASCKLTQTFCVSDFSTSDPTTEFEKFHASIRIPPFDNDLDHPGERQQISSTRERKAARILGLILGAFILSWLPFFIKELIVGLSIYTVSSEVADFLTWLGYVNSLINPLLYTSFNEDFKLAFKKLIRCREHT
T3 sequence (P35367 whole entry): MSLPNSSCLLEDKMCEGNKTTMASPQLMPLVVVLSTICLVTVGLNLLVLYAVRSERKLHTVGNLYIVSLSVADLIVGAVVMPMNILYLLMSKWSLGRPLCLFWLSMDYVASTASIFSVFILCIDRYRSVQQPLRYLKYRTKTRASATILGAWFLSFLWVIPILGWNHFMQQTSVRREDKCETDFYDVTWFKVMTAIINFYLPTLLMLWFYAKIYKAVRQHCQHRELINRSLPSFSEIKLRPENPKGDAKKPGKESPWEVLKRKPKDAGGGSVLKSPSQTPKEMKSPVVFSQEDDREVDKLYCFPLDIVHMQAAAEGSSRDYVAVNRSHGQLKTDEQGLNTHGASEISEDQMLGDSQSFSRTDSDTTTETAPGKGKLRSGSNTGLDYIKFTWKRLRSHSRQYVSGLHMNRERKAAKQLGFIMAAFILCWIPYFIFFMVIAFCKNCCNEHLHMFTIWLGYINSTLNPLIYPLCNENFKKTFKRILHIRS

NCCc1c[nH]c2ccc(O)cc12 [5-HT, 5-hydroxytryptamine]
PI Hydrolysis Eff (%) (human 5-HT2A receptors [1]): 100 ± 0% | BRET2 Eff % (human 5-HT2A receptors [2]): 100 ± 5%

CCN(CC)C(=O)N[C@H]1C[C@@H]2c3cccc4[nH]cc(c34)C[C@H]2N(C)C1 [(+)-Terguride]
PI Hydrolysis pEC50 (human 5-HT2A receptors [1]; [8]): 9.1 ± 0.2 | PI Hydrolysis Eff (%) (human 5-HT2A receptors [1]; [9]): 52 ± 8% | GTPγS pEC50 (D2 receptors [3]): 9.3 ± 0.2 | agonist profile in GTPγS binding assays at D2 receptors (D2 receptors [3]): strong partial agonists | GTPγS Eff % (D2 receptors [3]; [10]): 88 ± 8% | R-SAT pEC50 (human 5-HT2A receptors [4]; [11]): 9.8 ± 0.9 | R-SAT Eff(%) (human 5-HT2A receptors [4]; Table 1, percent response of reference ligand 5-CT, mean ± SEM): 89 ± 13% | R-SAT Eff(%) (D2 receptors [5]): 92 ± 20% | R-SAT pEC50 (D2 receptors [5]; Table 2, negative logarithm of EC50 in molar, NIH3T3 cells, mean ± SEM): 11.1 ± 0.2 | BRET2 pEC50 (human 5-HT2A receptors [2]; [8]): 7.0 ± 0.0 | BRET2 Eff % (human 5-HT2A receptors [2]; [9]): 42 ± 2% | BRET2 pEC50 (D2 receptors [6]; negative logarithm of EC50 in molar, HEK293T cells, mean ± SEM): 7.2 ± 0.1 | BRET2 Eff % (D2 receptors [6]; [10]): 8 ± 1% | BRET2 Eff % (D2 receptors [6]; percent response of reference ligand dopamine, mean ± SEM, listed as (+)-terguride): 8%

CCCN1CCCC(c2cccc(O)c2)C1 (single isomer, unassigned; (-)) [(−)-3-PPP, [3-(3-hydroxyphenyl)-N-n-propyl]piperidine]
PI Hydrolysis Eff (%) (human 5-HT2A receptors [1]; [9]): 5 — % | agonist profile in GTPγS binding assays at D2 receptors (D2 receptors [3]): strong partial agonists | GTPγS Eff % (D2 receptors [3]; [10]): 77 ± 4% | R-SAT Eff(%) (human 5-HT2A receptors [4]): 47 ± 12% | EC50 (human 5-HT2A receptors [4]; [11]): 3.98e-06 M | R-SAT Eff(%) (D2 receptors [5]; [12]): 77% and 77 ± 4% | BRET2 Eff % (human 5-HT2A receptors [2]; [9]): 10 ± 4% | BRET2 Eff % (D2 receptors [6]; [10]): 2% and 2 ± 0%

Clc1ccc2c(c1)N=C(N1CCNCC1)c1ccccc1N2 [NDMC, 8-chloro-11-(1-piperazinyl)-5H-dibenzo[b,e][1,4]diazepine]
EC50 (D2 receptors [3]; negative logarithm of EC50 in molar, HEK293T membranes, mean ± SEM, read-out: GTPγS pEC50 (converted)): 0.0398 µM | GTPγS Eff % (D2 receptors [3]; [10]): 18 ± 1% | R-SAT Eff(%) (D2 receptors [5]): 33 ± 2% | EC50 (D2 receptors [5]; Table 2, negative logarithm of EC50 in molar, NIH3T3 cells, mean ± SEM, read-out: R-SAT pEC50 (converted)): 0.0126 µM | agonist profile in BRET2 assays at D2 receptors (D2 receptors [6]): no agonist activity | BRET2 Eff % (D2 receptors [6]; [10]): 0 ± 0%

CCCN[C@H]1CCc2nc(N)sc2C1 [Pramipexole, (6S)—N^6-propyl-4,5,6,7-tetrahydro-1,3-benzothiazole-2,6-diamine]
GTPγS Eff % (D2 receptors [3]): 87 ± 6% | R-SAT Eff(%) (human 5-HT2A receptors [4]): 48 ± 9% | R-SAT Eff(%) (D2 receptors [5]): 84 ± 9% | BRET2 Eff % (human 5-HT2A receptors [2]): 52 ± 3% | BRET2 Eff % (D2 receptors [6]): 104 ± 1% | agonist profile in BRET2 assays at D2 receptors (D2 receptors [6]): full agonist

COc1cc(CC(C)N)c(OC)cc1I.Cl (racemic) [DOI, (±)-1-(2,5-dimethoxy-4-iodophenyl)-2-aminopropane hydrochloride, reference compound]
head twitches produced during 5 minutes (drug naive mice): induces head twitches in the mouse | motor activity (distance moved, DM 1.5) ([7]; reserpine 10 mg/kg ip 20 h prior, test drug ip just prior to recording, first 30 minutes, vs reserpine only group): able to induce locomotor stimulation in reserpine-pretreated mice

CCN1CCC[C@H]1CNC(=O)c1c(O)c(Cl)cc(Cl)c1OC [raclopride]
antagonism of motor stimulation induced by (+)-OSU6162 250 μmol/kg ip ([7]; reserpine-pretreated mice): None of the dopaminergic antagonists, i e SCH23390 (0.3 mg/kg), raclopride (20 mg/kg) or haloperidol (1 mg/kg), could antagonize | antagonism of motor stimulation induced by (−)-OSU6162 250 μmol/kg ip ([7]; reserpine-pretreated mice): could not antagonize

NCCc1c[nH]cn1 [Histamine, reference compound]
Eff (%) (human H1 receptor): 100%

CCCN1CCCC(c2cccc(O)c2)C1 (single isomer, unassigned; (+)) [(+)-3-PPP, [3-(3-hydroxyphenyl)-N-n-propyl]piperidine]
EC50 (human 5-HT2A receptors [1]; negative logarithm of EC50 in molar (M), HEK 293T cells, mean ± SEM, read-out: PI Hydrolysis pEC50 (converted)): > 1e-05 M | PI Hydrolysis Eff (%) (human 5-HT2A receptors [1]; [9]): 17 — % | agonist profile in GTPγS binding assays at D2 receptors (D2 receptors [3]): full agonist | GTPγS Eff % (D2 receptors [3]; [10]): 102 ± 4% | R-SAT Eff(%) (human 5-HT2A receptors [4]): 87 ± 26% | EC50 (human 5-HT2A receptors [4]; [11]): 6.31e-06 M | R-SAT Eff(%) (D2 receptors [5]; [12]): 101 ± 8% | EC50 (human 5-HT2A receptors [2]; negative logarithm of EC50 in molar (M), HEK 293T cells, mean ± SEM, read-out: BRET2 pEC50 (converted)): > 0.0001 M | BRET2 Eff % (human 5-HT2A receptors [2]; [9]): 42 ± 5% | agonist profile in BRET2 assays at D2 receptors (D2 receptors [6]): partial agonists | BRET2 Eff % (D2 receptors [6]; [10]): 58 ± 2%

CN1CCC(c2c[nH]c3ccc(O)cc23)CC1 [BRL 54443, reference compound]
pEC50 (human 5-HT1E receptor; [13]): 6.7 | Eff (%) (human 5-HT1E receptor; [14]): 100% | pEC50 (human 5-HT1F receptor; [13]): 6.8 | Eff (%) (human 5-HT1F receptor; [14]): 100%

O=C(CCCN1CCC(O)(c2ccc(Cl)cc2)CC1)c1ccc(F)cc1 [haloperidol]
antagonism of locomotor stimulation induced by (+)-OSU6162 50 μmol/kg sc (habituated rats; [15]): effectively antagonized the locomotor stimulation | antagonism of locomotor stimulation induced by (−)-OSU6162 50 μmol/kg sc (habituated rats; [15]): effectively antagonized the locomotor stimulation | antagonism of motor stimulation induced by (+)-OSU6162 250 μmol/kg ip ([7]; reserpine-pretreated mice): None of the dopaminergic antagonists, i e SCH23390 (0.3 mg/kg), raclopride (20 mg/kg) or haloperidol (1 mg/kg), could antagonize | antagonism of motor stimulation induced by (−)-OSU6162 250 μmol/kg ip ([7]; reserpine-pretreated mice): could not antagonize

COc1cccc([C@H](O)C2CCN(CCc3ccc(F)cc3)CC2)c1OC [M100907, (+)-(R)-1-[1-[2-(4-fluorophenyl)ethyl]piperidin-4-yl]-1-(2,3-dimethoxyphenyl)methanol]
reversal of (−)-OSU6162-induced locomotor stimulation (habituated rats; M100907 1 mg/kg ip, 15-35 minute interval): significant reversal | counteraction of locomotor stimulation induced by (+)-OSU6162 50 μmol/kg sc (habituated rats; M100907 0.5 and 1 mg/kg ip, 5-35 minute interval): significantly counteracted | effect of three doses on motor activity increase caused by 250 μmol/kg of (−)-OSU6162 ([7]; reserpine-pretreated mice, M100907 0.01, 0.1, 1 mg/kg ip 30 minutes prior): Only the 1 mg/kg dose significantly decreased motor activity | antagonism of locomotor stimulation induced by DOI 2.5 mg/kg ([7]; reserpine-pretreated mice, M100907 0.01, 0.1, 1 mg/kg ip 30 minutes prior, all doses significant): highly effective in antagonizing the locomotor stimulant effects of 2.5 mg/kg of DOI | reversal of locomotor stimulation induced by 125 μmol/kg of (+)-OSU6162 [7, 16]: effectively reversed | reversal of locomotor stimulation induced by 125 μmol/kg of (−)-OSU6162 [7, 16]: effectively reversed | antagonism of motor stimulation induced by (+)-OSU6162 250 μmol/kg ip ([7]; reserpine-pretreated mice): effectively antagonized this response | antagonism of motor stimulation induced by (−)-OSU6162 250 μmol/kg ip ([7]; reserpine-pretreated mice): effectively antagonized

CN1CCc2cc(Cl)c(O)cc2[C@H]2c3ccccc3CC[C@@H]21 [SCH39166]
antagonism of motor stimulation induced by (+)-OSU6162 250 μmol/kg ip ([7]; reserpine-pretreated mice): did not significantly influence the motor activation | antagonism of motor stimulation induced by (−)-OSU6162 250 μmol/kg ip ([7]; reserpine-pretreated mice): did not significantly influence the motor activation
